In ChEMBL document CHEMBL2202973, “Specific interactions between adenosine and streptavidin/avidin” (Bioorg Med Chem Lett, 2012):
Activity calls are given as the source filed them. The rule behind the calls is not given here.

Columns and labels:
[1] = biological target: Streptavidin (Streptomyces avidinii) (UniProt P22629); test: Binding affinity to Streptomyces avidinii assessed as changes in protein fluorescence intensity by fluorescence spectral analysis method
[2] = biological target: Avidin (Gallus gallus) (UniProt P02701); test: Binding affinity to chick avidin assessed as quenching rate constant by fluorescence quenching spectral method
[3] = biological target: Streptavidin (Streptomyces avidinii) (UniProt P22629); test: Binding affinity to Streptomyces avidinii assessed as quenching rate constant by fluorescence quenching spectral method
[4] = biological target: Avidin (Gallus gallus) (UniProt P02701); test: Binding affinity to chick avidin assessed as changes in protein fluorescence intensity in presence of biotin by fluorescence spectral analysis method
[5] = biological target: Avidin (Gallus gallus, UniProt P02701); test: Binding affinity to chick avidin using fluorescence spectral analysis method based double reciprocal plot analysis; conditions: read-out: Kd(app)
[6] = biological target: Streptavidin (Streptomyces avidinii, UniProt P22629); test: Binding affinity to Streptomyces avidinii streptavidin using fluorescence spectral analysis method based double reciprocal plot analysis; conditions: read-out: Kd(app)
[7] = biological target: Streptavidin (Streptomyces avidinii) (UniProt P22629); test: Binding affinity to Streptomyces avidinii assessed as changes in protein fluorescence intensity in presence of biotin by fluorescence spectral analysis method
[8] = biological target: Avidin (Gallus gallus) (UniProt P02701); test: Binding affinity to chick avidin assessed as changes in protein fluorescence intensity by fluorescence spectral analysis method
[9] = biological target: Albumin (Bos taurus, UniProt P02769); test: Binding affinity to BSA assessed as changes in tryptophan fluorescence intensity by fluorescence spectral analysis method; conditions: cattle
Sequence of Albumin (P02769 whole entry): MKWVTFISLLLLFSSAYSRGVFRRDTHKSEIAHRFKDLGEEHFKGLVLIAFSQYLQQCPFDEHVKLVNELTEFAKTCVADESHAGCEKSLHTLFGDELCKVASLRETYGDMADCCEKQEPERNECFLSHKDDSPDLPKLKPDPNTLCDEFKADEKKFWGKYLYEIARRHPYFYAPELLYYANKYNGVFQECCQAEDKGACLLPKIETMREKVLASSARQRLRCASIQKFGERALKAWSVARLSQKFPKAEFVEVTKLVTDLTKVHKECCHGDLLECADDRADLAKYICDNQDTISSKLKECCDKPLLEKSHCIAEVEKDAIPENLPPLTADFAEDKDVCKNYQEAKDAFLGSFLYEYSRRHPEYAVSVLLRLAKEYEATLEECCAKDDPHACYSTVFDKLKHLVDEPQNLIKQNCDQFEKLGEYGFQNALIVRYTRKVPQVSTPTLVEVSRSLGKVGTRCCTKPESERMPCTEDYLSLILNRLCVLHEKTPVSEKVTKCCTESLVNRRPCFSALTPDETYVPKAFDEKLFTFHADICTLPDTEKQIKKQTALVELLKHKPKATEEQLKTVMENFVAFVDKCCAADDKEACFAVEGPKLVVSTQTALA

Sequence of Avidin (Gallus gallus) (P02701 whole entry): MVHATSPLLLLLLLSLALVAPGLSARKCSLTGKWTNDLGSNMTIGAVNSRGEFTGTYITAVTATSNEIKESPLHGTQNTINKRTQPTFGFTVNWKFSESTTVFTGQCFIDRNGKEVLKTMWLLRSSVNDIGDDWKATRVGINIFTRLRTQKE
Sequence of Streptavidin (Streptomyces avidinii) (P22629 whole entry): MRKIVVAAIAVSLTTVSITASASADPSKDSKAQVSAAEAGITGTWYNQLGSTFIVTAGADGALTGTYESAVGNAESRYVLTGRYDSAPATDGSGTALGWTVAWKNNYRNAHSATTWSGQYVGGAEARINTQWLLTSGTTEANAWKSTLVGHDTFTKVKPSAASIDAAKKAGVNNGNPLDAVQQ
Sequence of Avidin (P02701 whole entry): as the sequence (P02701 whole entry) above
Sequence of Streptavidin (P22629 whole entry): as the sequence (P22629 whole entry) above

Question: Which Activity [1] does the source give for `O=C(O)CCCC[C@@H]1SC[C@@H]2NC(=O)N[C@@H]21` here?
Answer: Active

Question: What does the source list for `Nc1ncnc2c1ncn2[C@@H]1O[C@H](CO)[C@@H](O)[C@H]1O` [ADENOSINE]?
Answer: Kq [2]: 1.28 ×10¹¹ L/mol/s; Kq [3]: 8.5 ×10¹⁰ L/mol/s; Activity [4]: inactive; Kd [5]: 117 µM; Kd [6]: 168 µM; Activity [7]: inactive; Activity [8]: Active; Activity [9]: Not Active; Activity [1]: Active

Question: `Nc1ncnc2c1ncn2[C@@H]1O[C@H](COP(=O)(O)OP(=O)(O)OP(=O)(O)O)[C@@H](O)[C@H]1O` was tested. Which Activity [1] did it give?
Answer: inactive
